Test results: ChEMBL document CHEMBL1127767, “Synthesis of 19-hydroxy docetaxel from a novel baccatin” (Bioorg Med Chem Lett, 1994)
In brackets after ≈: the same amount, converted by molar mass.

Key:
[1] = Inhibitory activity towards microtubule disassembly relative to paclitaxel evaluated as ID50 compound/ID50 paclitaxel; format: functional
[2] = system: P388; assay: Cytotoxicity against P388 leukemia cells was calculated; format: functional, cell-based; details: Mus musculus

Structure (SMILES) | ID50 ratio [1] | IC50 [2] [µg/mL]
CC(=O)O[C@@]12CO[C@@H]1C[C@H](O)[C@@]1(CO)C(=O)[C@H](O)C3=C(C)[C@@H](OC(=O)[C@H](O)[C@@H](NC(=O)OC(C)(C)C)c4ccccc4)C[C@@](O)([C@@H](OC(=O)c4ccccc4)[C@H]21)C3(C)C | 0.4 | 0.07 (≈ 0.085 µM)
CC(=O)O[C@@]12CO[C@@H]1C[C@H](O)[C@@]1(C)C(=O)[C@H](O)C3=C(C)[C@@H](OC(=O)[C@H](O)[C@@H](NC(=O)OC(C)(C)C)c4ccccc4)C[C@@](O)([C@@H](OC(=O)c4ccccc4)[C@H]21)C3(C)C | 0.6 | –
